Read-outs that look alike come from different tables or passages of the source. Values belong to the molecule of their own block, whether it stands above or below them.
Tests used:
[1] = tested on: neuronal SynCre+ Pank1,2 dKO mice; test: Survival, weight gain and physiology of neuronal SynCre+ Pank1,2 dKO mice on Compound 1 chow; type: in vivo, mouse; conditions: 75 ppm chow
Description: All procedures were reviewed and approved by the St. Jude Children's Research Hospital Institutional Animal Care and Use Committee. […] The mice were maintained at room temperature, humidity 50±10% and a 14/10-hour light/dark cycle. […] Water was supplied ad libitum. Mice were randomized into the treatment arms at weaning.
Neuron-specific deletion of Pank1 and Pank2 was confirmed by PCR genotyping of brain and liver postmortem as described by Sharma et al.

in vivo = conditions: male, BALB/c, mouse, plasma; for bioavailability: oral
[2] = Pharmacokinetic evaluation in plasma of male BALB/c mice
wild-type mice = test: Effect of PZ-3022 chow on liver CoA, amino acids and TCA metabolites in wild-type mice; type: in vivo, mouse
Procedure: FIGS. 20A-20E show liver CoASH (20A), liver C2-CoA (20B), liver C3-CoA (20C), liver C3:C2-CoA ratio (20D), and plasma and urine amino acid levels (20E). Number of mice in each group are shown in parenthesis. Amino acids were measured by mass spectrometry using warfarin as an internal standard except for glycine, which was measured as its benzoyl derivative. […] Two male (blue) and three female (red) mice were used for each determination.
Urinary TCA cycle metabolites eliminated over 24 h were quantified by mass spectrometry and normalized to mouse body weight. […] Male (blue) and female (red) mice were used for each determination. Number of mice in each group are shown in parenthesis.
(§1) Animal experiments. […] Water was supplied ad libitum.

[3] = tested on: Pcca−/−PCCA(A138T)tg/0 (PA) mice
[4] = tested on: Pcca−/−PCCA(A138T)tg/0 (PA) mice; test: Short-term (3-day gavage) PZ-3022 treatment of PA mice: liver CoA pools and carnitines
C3A cells = test: Total cellular CoA in C3A cells; type: cell-based, human; conditions: 10 μM, 24 h
Procedure: Cell culture. Human C3A (HepG2/C3A) cells (#CRL-1074) were purchased from ATCC® and maintained in DMEM supplemented with 2 mM glutamine, 10% fetal bovine serum (Atlanta Biologicals), 50 U/ml penicillin and […] streptomycin. HEK293T cells (ATCC, #CRL-3216) were used for expression of human PCCA protein standard and were maintained in DMEM plus supplements as described above. Each cell line was confirmed to be mycoplasma-free. […] DMSO alone was added to control cultures. Culture medium was aspirated off the dish, cells were quickly washed with ice-cold phosphate-buffered saline that was quickly aspirated off the dish, and cells were quickly washed again with ice-cold water that was aspirated off to remove residual saline. Ice-cold water (1 ml) was added to the culture dish, cells were scraped into the cold water and the cell suspension was transferred to a glass test tube containing 400 μl of […] KOH and 1.5 ml water for analysis of total CoA content.

[5] = tested on: Pcca−/−PCCA(A138T)tg/0 (PA) mice; test: TCA cycle intermediates in urine of PZ-3022-treated PA mice; type: in vivo, mouse; conditions: PZ-3022 therapy
Procedure: FIGS. 6A-6B show TCA cycle intermediates in plasma and urine of treated PA mice. Urinary TCA cycle metabolites eliminated over 24 h were quantified by mass spectrometry and normalized to mouse body weight. […] Three male (blue) and three female (red) mice were used for each determination.
as §1
Metabolites in urine and plasma. Water was added to a 24-h urine sample to a final volume of 1 ml for each mouse. To 100 μl of urine or 20 μl of plasma, warfarin standard was added at a final concentration of 0.2 μM and the sample was incubated at −80° C. for 1 hour. The sample was centrifuged at 6000×g for 10 minutes to remove precipitants and the supernatant was analyzed by LC/MS/MS. […] Solvent A was 0.1% formic acid in water, and Solvent B was acetonitrile+0.1% formic acid. […] The MRMs for metabolites in either the positive or negative mode were taken from. The MRMs for the warfarin internal standard were: negative mode, 307.1/161.0; and positive mode, 309.1/163.0. […] The relative amount of metabolite was normalized to the amount of warfarin. To improve glycine detection, this metabolite was measured after derivatization with benzoyl chloride using the technology and MRMs described.

C57BL/6J mice = test: Liver total CoA and drug exposure in C57BL/6J mice (gavage or chow)
[6] = 75 ppm chow to day 70, male and female
[7] = 10 or 30 mg/kg plus 50 mg/kg pantothenate, 3 doses
[8] = 24 h urine normalized to body weight

Compound: O=C(Cc1ccc(C2CC2)c(F)c1)N1CCN(c2ccc(Cl)nn2)CC1 [Compound 1]
- Growth rate, lifespan and movement dysfunction [1]: improvement of growth rate, lifespan, and movement dysfunction
- Weight gain, greater than untreated dKO ([1]; at the time of evaluation): 10%

- Cmax (in vivo; iv, 2 mg/kg): 2810 ng/mL
- bioavailability (in vivo; 10 mg/kg): 46%
- AUCinf ([2]; i.v. 2 mg/kg): 611.5 ng·h/mL
- AUClast ([2]; i.v. 2 mg/kg): 608.6 ng·h/mL
- CL ([2]; i.v. 2 mg/kg): 54.5 mL/min/kg
- T1/2 ([2]; i.v. 2 mg/kg): 18 min
- Vss ([2]; i.v. 2 mg/kg): 0.9 L/kg
- AUCinf ([2]; p.o. 10 mg/kg): 1424.0 ng·h/mL
- AUClast ([2]; p.o. 10 mg/kg): 1397.8 ng·h/mL
- C0/Cmax (Cmax) ([2]; p.o. 10 mg/kg): 1886.5 ng/mL
- Tmax ([2]; p.o. 10 mg/kg, 30% Captisol, male BALB/c mice, plasma): 18 min
Compound: CC(C)c1ccc(CC(=O)N2CCN(c3ccc(C#N)nn3)CC2)cc1 [PZ-2891]

- AUC(0-t) (in vivo; iv, 2 mg/kg): 2960 ng·h/mL
- Cmax (in vivo; iv, 2 mg/kg): 3290 ng/mL
- bioavailability (in vivo; 10 mg/kg): 100%
- AUC(0-t) (in vivo; po, 10 mg/kg): 16900 ng·h/mL
- Plasma and liver PZ-3022 levels versus dose in chow (C57BL/6J mice; 7.5, 37.5 and 75 ppm in chow, 1 week): dose-dependent increase in drug
- Circulating PZ-3022 at 24 h (C57BL/6J mice; gavage, plasma): not detected
Compound: N#Cc1ccc(N2CCN(C(=O)Cc3ccc(C4CC4)cc3)CC2)nn1 [PZ-3022, 6-(4-(2-(4-cyclopropylphenyl)acetyl)piperazin-1-yl)pyridazine-3-carbonitrile]
- Plasma and urine TCA cycle-related metabolite levels (wild-type mice; treated vs untreated wild-type mice): no differences
- Liver C3-CoA (wild-type mice; wild-type mice on PZ-3022 chow): not altered
- Liver CoASH (wild-type mice; wild-type mice on PZ-3022 chow): increased as expected
- Liver acetyl-CoA (wild-type mice; wild-type mice on PZ-3022 chow): increased as expected
- Plasma and urine amino acids (wild-type mice; wild-type mice on PZ-3022 chow): not changed with the exception of histidine being lower in plasma and higher in urine
- Liver CoASH ([3]; 75 ppm PZ-3022 + 1000 ppm pantothenate chow from day 21 to day 70, males and females): restored liver CoASH levels to wild-type
- Hepatic C3-CoA ([3]; 75 ppm chow to day 70): significant drop
- Liver C2-CoA ([3]; 75 ppm chow to day 70): restored to wild-type levels
- Liver C2-carnitine ([3]; 75 ppm chow to day 70): did not exhibit significant increases
- Liver carnitine ([3]; 75 ppm chow to day 70): did not exhibit significant increases
- Plasma C3-carnitine ([3]; 75 ppm chow to day 70, female mice): reduced
- Liver C3-carnitine [3, 6]: significantly decreased
- Plasma C2-carnitine [3, 6]: significantly increased
- Plasma carnitine [3, 6]: increase
- Plasma C3-carnitine ([3]; 75 ppm chow to day 70, male mice): the same in the treated and untreated male mice
- Heart total CoA ([3]; PZ-3022 chow until 70 days of age): increased
- Reduction in C3-CoA in liver ([3]; PZ-3022 therapy): 50%
- Liver total CoA ([4]; 10 and 30 mg/kg, 3 doses, fluorescent derivatization): significant, dose-dependent elevation
- Liver C2-CoA [4, 7]: increased
- Liver C3-CoA [4, 7]: decreased but was not eliminated
- Liver CoASH ([4]; 10 or 30 mg/kg plus 50 mg/kg pantothenate, 3 doses at 24 h, 4 h after last dose): significantly elevated
- Elevation of total cellular CoA (C3A cells): just as effective at raising total CoA levels in cultured cells as PZ-2891
- Reduction in urinary methylmalonate ([5]; 24 h urine): 47%
- Reduction of urinary malate ([5]; 24 h urine): 80%
- Urine citrate level [5, 8]: significantly reduced
- Urine malate level [5, 8]: significantly reduced
- Urine methylmalonate level [5, 8]: significantly reduced
- Urine α-ketoglutarate level [5, 8]: significantly reduced
- Elevation of hepatic total CoA (C57BL/6J mice; 10 mg/kg oral gavage every 24 h for three days, 4 h after last dose): slightly more potent in elevating CoA than PZ-2891
- Total liver CoA versus dose in chow (C57BL/6J mice; 7.5, 37.5 and 75 ppm in chow with 1000 ppm pantothenate, 1 week): dose response relationship
- Hepatic CoA levels at 24 h (C57BL/6J mice; gavage): returned to the pre-dose level
- Time at which elevation of liver CoA begins after administration (C57BL/6J mice; gavage, C57BL/6J male mice): 2 h
- Time up to which elevation of liver CoA is maintained (C57BL/6J mice; gavage, C57BL/6J male mice): up to 8 h
- Parent drug levels in plasma and liver (C57BL/6J mice; same oral dosage, 75 ppm chow for 4 weeks): higher levels of circulating (FIG. 16C) and liver (FIG. 16D) PZ-3022 compared to PZ-2891

From US20240115566A1, “METHODS OF TREATING DISORDERS ASSOCIATED WITH CASTOR” (ST. JUDE CHILDREN'S RESEARCH HOSPITAL, INC., priority 2020, published 2024)
